The values below come from paper PMC3853024, “Aromatase inhibitor treatment with an intravaginal device and its effect on pre-ovulatory ovarian follicles in a bovine model” (Reproductive Biology and Endocrinology : RB&E, 2013).

In experiment [1] the test system is plasma FSH. The experiment can be described thus: Plasma FSH concentration (radioimmunoassay) in treated heifers. Type of experiment: in vivo, cattle (Hereford-cross beef heifers). The conditions noted are these: n=15, P=0.1. On the procedure: (§1) Heifers in which a CL was detected were given two luteolytic doses of PGF (12 h apart) and monitored by ultrasonography for ovulation. Five to eight days later, the two largest ovarian follicles were ablated by transvaginal ultrasound-guided follicular aspiration to synchronize follicular wave emergence which was expected to occur 1 to 1.5 days later. Prostaglandin (500 μg cloprostenol, Estrumate, Schering-Plough Animal Health, Pointe-Claire, QC, Canada) was given intramuscularly at 60 and 72 h after follicular ablation to induce regression of the CL and shift from a non-ovulatory to an ovulatory follicular wave. […] Devices were inserted on Day 1 and were kept in place until Day 7 or until ovulation was detected, which ever occurred first. […]
Plasma FSH concentrations were determined in duplicate using a double-antibody radioimmunoassay using NIDDK-anti-oFSH-1 primary antibody and expressed as USDA bovine FSH-Il units. […] All samples were analyzed in a single assay; the intra-assay coefficients of variation were 7.9 and 6.5%, for low (mean, 2.4 ng/mL) and high reference samples (mean 4.9 ng/mL), respectively. […]

Experiment [2] concerns ovarian function. Further details: method as in PMID 21696721, PMID 22541551. The conditions noted are these: cited from earlier work.
Experiment [3] deals with plasma progesterone. Description: Plasma progesterone concentration (radioimmunoassay) after post-treatment ovulation. Type of experiment: in vivo, cattle (Hereford-cross beef heifers). The conditions noted are these: first 12 days post-ovulation, n=15, P=0.01. As to the method:
as §1
Plasma progesterone concentrations were determined in duplicate using a commercial solid-phase radioimmunoassay kit (Coat-A-Count; Diagnostic Products Corporation, Los Angeles, CA, USA). […] All samples were analyzed in a single assay; the intra-assay coefficients of variation were 9.7% and 5.8 % for low- (mean, 1.7 ng/mL) and high-reference samples (mean, 18.7 ng/mL), respectively. […]

Setting [4] is: single intravenous dose Day 3 post-ovulation, or 3-day regimen Days 1–3, 3–5 or 5–7 post-ovulation.

Take `N#Cc1ccc(C(c2ccc(C#N)cc2)n2cncn2)cc1` [Letrozole]: the “Plasma FSH concentrations versus control” value in experiment [1] is on record as “tendency for lower”. The “Corpora lutea size following treatment” value in experiment [2] (heifers treated with letrozole for 3 days) is “larger corpora lutea”. Also, in experiment [2] (setting [4]), the “Circulating FSH concentration” value is “did not induce an elevation” and the “Mean plasma luteinizing hormone (LH) concentrations” value is given as “did increase”. In addition, the “Plasma progesterone concentrations versus control” value in experiment [3] was “higher”.
